Test [1] has as its system Mycobacterium tuberculosis. In words: (§1) Inhibition of Mycobacterium tuberculosis expressing RNA polymerase RpoB S450L mutant after 10 mins using ribo green by rolling circle transcription assay.
Test [2] can be described thus: as §1.
The subject of test [3] is Mycobacterium tuberculosis. Description: Ratio of compound MIC90 to Rifamycin S MIC90 for Mycobacterium tuberculosis RNA polymerase RpoB S450L mutant.
For test [4], the system named is Mycobacterium tuberculosis. Description: Ratio of compound MIC90 to Rifampin S MIC90 for Mycobacterium tuberculosis RNA polymerase RpoB S450L mutant.

We go through eight molecules from ChEMBL document CHEMBL1909569 (Bioorg Med Chem Lett, 2011).

For the molecule `CO[C@H]1/C=C/O[C@@]2(C)Oc3c(c4c5c(nn(CCO)c5c3C)C(=C(/C=N/N3CCN(C)CC3)C4=O)NC(=O)/C(C)=C\C=C\[C@H](C)[C@H](O)[C@@H](C)[C@@H](O)[C@@H](C)[C@H](OC(C)=O)[C@@H]1C)C2=O`, the logIC50 in test [1] stood at 1.48. In addition, in test [2], the IC50 was determined as 29.9 µM.
`CO[C@H]1/C=C/O[C@@]2(C)Oc3c(C)c(OS(=O)(=O)c4ccc(C)cc4)c4c(c3C2=O)C(=O)C=C(NC(=O)/C(C)=C\C=C\[C@H](C)[C@H](O)[C@@H](C)[C@@H](O)[C@@H](C)[C@H](OC(C)=O)[C@@H]1C)C4=O`: the logIC50 in test [1] was determined as 2.99. Moreover, the IC50 in test [2] was determined as 982 µM. For the same molecule, in test [3], the Ratio turned out to be 5.
For `CO[C@H]1/C=C/O[C@@]2(C)Oc3c(C)c(NC4CCCCCC4)c4c(c3C2=O)C(=O)C=C(NC(=O)/C(C)=C\C=C\[C@H](C)[C@H](O)[C@@H](C)[C@@H](O)[C@@H](C)[C@H](OC(C)=O)[C@@H]1C)C4=O`, the Ratio IC50 in test [4] came to 3. In test [1], the logIC50 is 2.1. The molecule further returned an IC50 in test [2] of 127 µM.
As to `CO[C@H]1/C=C/O[C@@]2(C)Oc3c(C)c(N(C)C)c4c(c3C2=O)C(=O)C=C(NC(=O)/C(C)=C\C=C\[C@H](C)[C@H](O)[C@@H](C)[C@@H](O)[C@@H](C)[C@H](OC(C)=O)[C@@H]1C)C4=O`, the Ratio IC50 in test [4] amounted to 3. In addition, the logIC50 in test [1] amounted to 2.43. Also, the IC50 in test [2] worked out at 270 µM.
`CO[C@H]1/C=C/O[C@@]2(C)Oc3c(C)c(O)c4c(c3C2=O)C(=O)C(/C=N/N2CCN(C)CC2)=C(NC(=O)/C(C)=C\C=C\[C@H](C)[C@H](O)[C@@H](C)[C@@H](O)[C@@H](C)[C@H](OC(C)=O)[C@@H]1C)C4=O` [RIFAMPIN S] had a logIC50 in test [1] of 1.67. Moreover, in test [2], the IC50 came out at 46.5 µM.
The corresponding values for `CO[C@H]1/C=C/O[C@@]2(C)Oc3c(C)c(SC)c4c(c3C2=O)C(=O)C=C(NC(=O)/C(C)=C\C=C\[C@H](C)[C@H](O)[C@@H](C)[C@@H](O)[C@@H](C)[C@H](OC(C)=O)[C@@H]1C)C4=O` are 1.57 and 37.5 µM.
In the case of `CO[C@H]1/C=C/O[C@@]2(C)Oc3c(C)c(O)c4c(c3C2=O)C(=O)C=C(NC(=O)/C(C)=C\C=C\[C@H](C)[C@H](O)[C@@H](C)[C@@H](O)[C@@H](C)[C@H](OC(C)=O)[C@@H]1C)C4=O` [RIFAMYCIN S], in test [1], the logIC50 worked out at 1.56. In addition, the midpoint of inhibition in test [2], the IC50, lay at 36 µM.
Take `CO[C@H]1/C=C/O[C@@]2(C)Oc3c(C)c(N)c4c(c3C2=O)C(=O)C=C(NC(=O)/C(C)=C\C=C\[C@H](C)[C@H](O)[C@@H](C)[C@@H](O)[C@@H](C)[C@H](OC(C)=O)[C@@H]1C)C4=O`: the Ratio IC50 in test [4] is 3. The logIC50 in test [1] was 2.27. In test [2], it took 186 µM to reach half-maximal inhibition (IC50).
